Results: US5607926A, “Cephalosporin antibiotics” (Microcide Pharmaceuticals, Inc., priority 1995, dated 1997)
In brackets after ≈: the same amount, converted by molar mass. Read-outs that look alike come from different tables or passages of the source.

Columns and labels:
[1] = system: S. aureus 76 (Meth^R)(lac^+); experiment: In vitro antibacterial evaluation, MIC by agar dilution, S. aureus 76; format: cell-based; details: Staphylococcus aureus, read-out: MIC
Procedure, shortened: (§1)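 Minimum inhibitory concentrations came from the NCCLS agar dilution method in Mueller-Hinton agar. Each isolate received about 10^4 cfu per spot, and plates were read after 16-20 hours at 35°-36° C.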

E. faecalis ATCC 29212 = experiment: In vitro antibacterial evaluation, MIC by agar dilution, E. faecalis ATCC 29212; format: cell-based; details: Enterococcus faecalis, ATCC29212; E. faecalis ATCC 29212; read-out: MIC
Procedure, shortened: as §1

[2] = system: X. maltophilia ATCC 13637; experiment: In vitro antibacterial evaluation, MIC by agar dilution, X. maltophilia ATCC 13637; format: cell-based; details: Stenotrophomonas maltophilia, ATCC13637
Experimental: The compounds of the invention were evaluated against several β-lactamresistant bacteria strains by determining the minimum inhibitory concentration (MIC, μg/ml) of each compound with respect to each strain. The MIC, the lowest concentration of antibiotic which inhibits growth of the test organism, was determined by the agar dilution method.
To determine the MIC for bacterial isolates, the test compound was incorporated in a series of two-fold dilutions into liquified Mueller-Hinton agar. Upon solidification, a number of different bacterial strains were spot inoculated with a replicating device onto the agar surface. […] The procedures used in these studies have been standardized by the National Committee for Clinical Laboratory Standards (NCCLS), as per the NCCLS publication entitled METHODS FOR DILUTION ANTIMICROBIAL SUSCEPTIBILITY TESTS (1991), which is incorporated herein by reference.
Aliquots of antimicrobial agents were prepared in phosphate buffered saline (PBS) at pH 7.2. Tween 20 or DMSO was used as a solubilizing vehicle as needed. Standard methods of vortexing, sonicating and gentle heat were used to facilitate solubilizing the test agent. Typically, the concentration of the stock solution was 10× that of the highest drug concentration tested. A 1.28 mg/mL stock solution was used with a subsequent highest working concentration of 128 μg/mL. Serial two-fold dilutions were done through ≤0.25 μg/mL. Each drug level was tested in duplicate. Two-fold drug dilutions were done in sterile 50 mL tubes with a final drug volume of 5 mL. Upon the addition of 45 mL of molten agar, a 10-fold dilution resulted. Two, 25 mL. plates were then poured into 15×150 mm square Petri plates with grids and allowed to harden.
A control plate with a reference drug, either cefotaxime, vancomycin or imipenem, was used as the positive growth control. Stock concentrations of reference antibiotics were prepared and frozen at -80° C. Upon preparation, the control plates were sealed and stored in the refrigerator for up to 1 week prior to use; however, imipenem control plates had to be prepared just prior to use. All test plates were used within 24 hours of preparation.
Satisfactory results were obtained where the inoculum contained about 10^4 colony forming units (cfu) ±0.5 logs. Starting with pure cultures of the test isolates on agar plates, a few isolated colonies were transferred to a tube of nutrient broth and allowed to grow 4-6 hours at 35°-36° C. to reach log-phase growth. Dropwise addition of the broth culture to PBS was done to match a 0.5 McFarland turbidity standard equal to 10^8 cfu/mL. This was further diluted ten-fold in PBS to reach a working inoculum concentration of 10^7 cfu/mL. When 1 μL of the working inoculum was applied to the agar surface a concentration of about 10^4 cfu per spot was obtained.
Disposable sterile 1 μL loops were used to inoculate test plates, with each isolate in a designated grid on the agar plate. An alternate method of inoculation involved the use of a replica plater, a device with 48 steel pins allowing the simultaneous inoculation of multiple isolates. After the spots had dried, the plates were incubated at 35°-36° C. for 16-20 hours. Endpoints were assessed as the minimum inhibitory concentration (MIC) of antimicrobial agent.

E. coli ATCC 25922 = experiment: In vitro antibacterial evaluation, MIC by agar dilution, E. coli ATCC 25922; format: cell-based; details: Escherichia coli, ATCC25922, read-out: MIC
Procedure, shortened: as §1

P. aeruginosa ATCC 27853 = experiment: In vitro antibacterial evaluation, MIC by agar dilution, P. aeruginosa ATCC 27853; format: cell-based; details: Pseudomonas aeruginosa, ATCC27853, read-out: MIC
Procedure, shortened: as §1

S. aureus ATCC 25923 = experiment: In vitro antibacterial evaluation, MIC by agar dilution, S. aureus ATCC 25923; format: cell-based; details: Staphylococcus aureus, ATCC25923
Procedure, shortened: as §1

S. aureus ATCC 29213 = experiment: In vitro antibacterial evaluation, MIC by agar dilution, S. aureus ATCC 29213; format: cell-based; details: Staphylococcus aureus, ATCC29213
Procedure, shortened: as §1

[3] = system: S. aureus Col8A (Meth^S)(lac^-); experiment: In vitro antibacterial evaluation, MIC by agar dilution, S. aureus Col8A; format: cell-based; details: Staphylococcus aureus
Procedure, shortened: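 Agar dilution per NCCLS (1991): two-fold dilutions from 128 μg/mL down to ≤0.25 μg/mL in Mueller-Hinton agar, each level in duplicate. Spots of about 10^4 cfu of log-phase culture; 16-20 h at 35°-36° C. MIC in μg/ml is the lowest concentration inhibiting growth.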

[4] = system: S. epidermidis ATCC 31432; experiment: In vitro antibacterial evaluation, MIC by agar dilution, S. epidermidis ATCC 31432; format: cell-based; details: Staphylococcus epidermidis, ATCC31432
Procedure, shortened: as §1

E. faecium ATCC 35667 = experiment: In vitro antibacterial evaluation, MIC by agar dilution, E. faecium ATCC 35667; format: cell-based; details: Enterococcus faecium, ATCC35667, read-out: MIC
Procedure, shortened: as §1

S. haemolyticus (Meth^R) = experiment: In vitro antibacterial evaluation, MIC by agar dilution, S. haemolyticus; format: cell-based; details: Staphylococcus haemolyticus, read-out: MIC
Procedure, shortened: as §1

[5] = system: methicillinsusceptible S. aureus strain ATCC 13709; experiment: In vivo antibacterial evaluation, murine model for lethal bacteremic peritonitis; parameters: species or system S. aureus in female Swiss-Webster mice; details: Staphylococcus aureus, ATCC13709, sc, 72 h, two equal SC doses at challenge and 2 hours later, mice, probit, read-out: ED50
Procedure, shortened: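 Female Swiss-Webster mice received IP an LD100 bacterial titer in 7% hog gastric mucin, then two equal subcutaneous doses (at challenge and 2 h later) of two-fold increments of drug, range 0.01–512 mg/kg. Survival scored at 72 h; PD50 (total mg/kg) by probit, groups of 10.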

[6] = system: methicillinsusceptible S. aureus strain ATCC 13709; experiment: Challenge strain MIC; format: cell-based; details: Staphylococcus aureus, ATCC13709, S. aureus ATCC 13709; read-out: Challenge str MIC
Procedure, shortened: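 MIC was found by agar dilution to NCCLS standards: two-fold compound dilutions from 128 μg/mL through ≤0.25 μg/mL in Mueller-Hinton agar, each level in duplicate. Log-phase inocula of about 10^4 cfu per spot were applied. Plates were incubated 16-20 h at 35°-36° C, and the MIC was the lowest concentration inhibiting growth.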

[7] = S. aureus ATCC 25923, read-out: MIC
[8] = S. aureus ATCC 29213, read-out: MIC
[9] = S. epidermidis ATCC 31432, read-out: MIC

Row | SMILES | MIC [1] [µg/mL] | MIC (E. faecalis ATCC 29212) [µg/mL] | MIC [2] [µg/mL] | MIC (E. coli ATCC 25922) [µg/mL] | MIC (P. aeruginosa ATCC 27853) [µg/mL] | MIC (S. aureus ATCC 25923; [7]) [µg/mL] | MIC (S. aureus ATCC 29213; [8]) [µg/mL] | MIC [3] [µg/mL] | MIC [4, 9] [µg/mL] | MIC (S. aureus ATCC 25923) [µg/mL] | MIC (S. aureus ATCC 29213) [µg/mL] | MIC [4] [µg/mL] | MIC (E. faecium ATCC 35667) [µg/mL] | MIC (S. haemolyticus (Meth^R)) [µg/mL] | ED50 [5] [mg/kg] | MIC [6] [µg/mL]
1 | O=C(Cc1ccccc1)N[C@@H]1C(=O)N2C(C(=O)O)=C(Sc3ccc4c(c3)oc3ccccc34)CS[C@H]12 [Cmpd 7, (7R)-7-[(Phenylacetyl)amino]-3-(dibenzofuranyl-3-thio)-3-cephem-4-carboxylic acid] | 16 (≈ 31 µM) | 1 (≈ 1.94 µM) | > 32 | > 32 | > 32 | < 0.06 | < 0.06 | 0.06 (≈ 0.116 µM) | < 0.06 | – | – | – | – | – | – | –
2 | O=C(Cc1ccccc1)N[C@@H]1C(=O)N2C(C(=O)O)=C(Sc3ccc(-c4ccccc4)cc3)CS[C@H]12 [Cmpd 8, (7R)-7-[(Phenylacetyl)amino]-3-(4-biphenylthio)-3-cephem-4-carboxylic acid] | > 32 | 4 (≈ 7.96 µM) | > 32 | > 32 | > 32 | – | – | < 0.125 | – | < 0.125 | < 0.125 | < 0.125 | – | – | – | –
3 | O=C(Cc1ccccc1)N[C@@H]1C(=O)N2C(C(=O)O)=C(Sc3cccc(-c4ccccc4)c3)CS[C@H]12 [Cmpd 10, (7R)-7-[(Phenylacetyl)amino]-3-(3-biphenylthio)-3-cephem-4-carboxylic acid] | 32 (≈ 63.7 µM) | 2 (≈ 3.98 µM) | > 32 | > 32 | > 32 | < 0.06 | – | 0.125 (≈ 0.249 µM) | < 0.06 | – | 0.125 (≈ 0.249 µM) | – | – | – | – | –
4 | O=C(Cc1ccccc1)N[C@@H]1C(=O)N2C(C(=O)O)=C(Sc3ccc(-c4ccccc4)cc3Br)CS[C@H]12 [Cmpd 11, (7R)-7-[(Phenylacetyl)amino]-3-(2-bromo-4-biphenylthio)-3-cephem-4-carboxylic acid] | 4 (≈ 6.88 µM) | 2 (≈ 3.44 µM) | > 32 | > 32 | > 32 | < 0.015 | 0.125 (≈ 0.215 µM) | 0.06 (≈ 0.103 µM) | 0.03 (≈ 0.0516 µM) | – | – | – | 4 (≈ 6.88 µM) | 4 to 8 (≈ 6.88 to 13.8 µM) | – | –
5 | N#CCC(=O)N[C@@H]1C(=O)N2C(C(=O)O)=C(Sc3ccnn3-c3ccccc3)CS[C@H]12 [Cmpd 88, (7R)-7-[(Cyanoacetyl)amino]-3-(1-N-phenylpyrazol-5-ylthio)-3-cephem-4-carboxylic acid] | 16 (≈ 36.2 µM) | 4 (≈ 9.06 µM) | – | > 32 | > 32 | – | – | < 0.25 | – | < 0.25 | – | < 0.25 | 2 (≈ 4.53 µM) | 16 (≈ 36.2 µM) | 0.31 | 0.25 (≈ 0.566 µM)
6 | Nc1nc(/C(=N/OC2CCCC2)C(=O)N[C@@H]2C(=O)N3C(C(=O)O)=C(Sc4ccnn4-c4ccccc4)CS[C@H]23)cs1 [Cmpd 89, (7R)-7-[(Z)-2-(aminothiazol-4-yl)-2-(cyclopentyloxyimino)acetamido]-3-(1-N-phenylpyrazol-5-ylthio)-3-cephem-4-carboxylic acid] | 4 (≈ 6.54 µM) | 2 (≈ 3.27 µM) | – | 2 (≈ 3.27 µM) | 8 (≈ 13.1 µM) | < 0.25 | 0.5 (≈ 0.817 µM) | 0.5 (≈ 0.817 µM) | < 0.25 | – | – | – | 4 (≈ 6.54 µM) | 8 (≈ 13.1 µM) | > 10 | 0.5 (≈ 0.817 µM)
